{"source": "patent US12568968B2", "about": "“Herbicide combinations comprising glufosinate and epyrifencacil” (BASF SE, priority 2020, dated 2026)", "test_in_all_cases": "Greenhouse post-emergence weed control, percent injury vs untreated control", "type_in_all_cases": "in vivo", "key": {"[1]": {"test_system": "Amaranthus tuberculatus (AMATU)", "details": "480 h, 20 DAT"}, "[2]": {"test_system": "Amaranthus Palmeri (AMAPA)", "details": "480 h, 20 DAT"}, "[3]": {"test_system": "Hordeum vulgare (HORVS)", "details": "480 h, 20 DAT"}, "[4]": {"test_system": "Abutilon theophrasti (ABUTH)", "details": "480 h, 20 DAT"}, "[5]": {"test_system": "Avena fatua (AVEFA)", "details": "480 h, 20 DAT, 1% MSO"}, "[6]": {"details": "50 g ai/ha, read-out: Solo Glufosinate % activity"}, "[7]": {"details": "200 g ai/ha, read-out: Solo Glufosinate % activity"}, "[8]": {"details": "0.9 g ai/ha, read-out: Solo epyrifenacil % activity"}}}
{"smiles": "CP(=O)(O)CCC(N)C(=O)O", "note": "(racemic) [Glufosinate, (2RS)-2-amino-4-[hydroxy(methyl)phosphinoyl]butyric acid]", "values": [{"measurement": "inhibition at 50 g/ha", "setting": "[1]; [6]", "value": 10, "unit": "%"}, {"measurement": "inhibition at 100 g/ha", "setting": "[1]; 100 g ai/ha, read-out: Solo Glufosinate % activity", "value": 10, "unit": "%"}, {"measurement": "inhibition at 200 g/ha", "setting": "[1]; [7]", "value": 70, "unit": "%"}, {"measurement": "inhibition at 200 g/ha", "setting": "[2]; 200 g ai/ha, Table 5, read-out: Solo Glufosinate % activity", "value": 75, "unit": "%"}, {"measurement": "inhibition at 200 g/ha", "setting": "[3]; [7]", "value": 25, "unit": "%"}, {"measurement": "inhibition at 200 g/ha", "setting": "[4]; [7]", "value": 10, "unit": "%"}, {"measurement": "inhibition at 50 g/ha", "setting": "[5]; [6]", "value": 10, "unit": "%"}]}
{"smiles": "CCOC(=O)COc1ncccc1Oc1cc(-n2c(=O)cc(C(F)(F)F)n(C)c2=O)c(F)cc1Cl", "note": "[epyrifenacil, Acetic acid, 2-[[3-[2-chloro-5-[3,6-dihydro-3-methyl-2,6-dioxo-4-(trifluoromethyl)-1(2H)-pyrimidinyl]-4-fluorophenoxy]-2-pyridinyl]oxy]-, ethyl ester]", "values": [{"measurement": "inhibition at 0.9 g/ha", "setting": "[1]; 0.9 g ai/ha, Table 2, read-out: Solo epyrifenacil % activity", "value": 75, "unit": "%"}, {"measurement": "inhibition at 0.3 g/ha", "setting": "[2]; 0.3 g ai/ha, read-out: Solo epyrifenacil % activity", "value": 15, "unit": "%"}, {"measurement": "inhibition at 0.9 g/ha", "setting": "[2]; [8]", "value": 20, "unit": "%"}, {"measurement": "inhibition at 0.9 g/ha", "setting": "[3]; [8]", "value": 10, "unit": "%"}, {"measurement": "inhibition at 0.1 g/ha", "setting": "[4]; 0.1 g ai/ha, read-out: Solo epyrifenacil % activity", "value": 25, "unit": "%"}, {"measurement": "inhibition at 0.9 g/ha", "setting": "[5]; [8]", "value": 15, "unit": "%"}]}
